Source: BigSolDB 2.1

O=C1OC(=O)c2cc(Cl)ccc21
solubility (mole fraction)
Conditions	283.15 K	288.15 K	293.15 K	298.15 K	303.15 K	308.15 K	313.15 K	318.15 K	323.15 K
in 1,4-dioxane	0.0825	0.0992	0.124	0.142	0.166	0.205	0.25	0.298	0.359
in acetone	0.201	0.222	0.246	0.287	0.316	0.369	0.427	0.473	0.522
in ethyl acetate	0.178	0.184	0.206	0.228	0.261	0.293	0.326	0.377	0.437

O=C1OC(=O)c2c(Cl)cccc21
solubility (mole fraction)
Conditions	283.15 K	288.15 K	293.15 K	298.15 K	303.15 K	308.15 K	313.15 K	318.15 K	323.15 K
in 1,4-dioxane	0.185	0.226	0.268	0.296	0.328	0.367	0.396	0.42	0.439
in acetone	0.167	0.182	0.202	0.218	0.234	0.261	0.291	0.32	0.357
in ethyl acetate	0.107	0.112	0.121	0.133	0.154	0.169	0.191	0.225	0.265

O=C(O)c1ccc(Cl)cc1C(=O)O
in water
Conditions	solubility (mole fraction)
283.15 K	0.0802
288.15 K	0.0913
293.15 K	0.109
298.15 K	0.125
303.15 K	0.145
308.15 K	0.169
313.15 K	0.2
318.15 K	0.226
323.15 K	0.262
328.15 K	0.299
333.15 K	0.349

O=C(O)c1cccc(Cl)c1C(=O)O
in water
Conditions	solubility (mole fraction)
283.15 K	0.00201
288.15 K	0.00221
293.15 K	0.00248
298.15 K	0.00281
303.15 K	0.00315
308.15 K	0.00346
313.15 K	0.00383
318.15 K	0.0043
323.15 K	0.00473
328.15 K	0.00517
333.15 K	0.0056
